From ChEMBL document CHEMBL4680375 (ACS Med Chem Lett, 2021)
Calls of active or inactive are those of the source. The calls are words filed in the database; no cut-off is given here.

What was measured:
[1] = target: NAD-dependent protein deacetylase sirtuin-1 (Homo sapiens, UniProt Q96EB6, F273L); assay: Inhibition of N-terminal hexa-His-tagged human SIRT1 F273L mutant (156 to 664 residues) expressed in Escherichia coli BL21 (DE3) assessed as dissociation equilibrium constant using Abz-GVLKacAYNO2GY-NH2 as substrate in presence of varying level of NAD+ by Lineweaver-burk plot analysis
NAD-dependent protein deacetylase sirtuin-1 (Homo sapiens, UniProt Q96EB6, F273L), sequence (Q96EB6 2-747 F273L limits assumed): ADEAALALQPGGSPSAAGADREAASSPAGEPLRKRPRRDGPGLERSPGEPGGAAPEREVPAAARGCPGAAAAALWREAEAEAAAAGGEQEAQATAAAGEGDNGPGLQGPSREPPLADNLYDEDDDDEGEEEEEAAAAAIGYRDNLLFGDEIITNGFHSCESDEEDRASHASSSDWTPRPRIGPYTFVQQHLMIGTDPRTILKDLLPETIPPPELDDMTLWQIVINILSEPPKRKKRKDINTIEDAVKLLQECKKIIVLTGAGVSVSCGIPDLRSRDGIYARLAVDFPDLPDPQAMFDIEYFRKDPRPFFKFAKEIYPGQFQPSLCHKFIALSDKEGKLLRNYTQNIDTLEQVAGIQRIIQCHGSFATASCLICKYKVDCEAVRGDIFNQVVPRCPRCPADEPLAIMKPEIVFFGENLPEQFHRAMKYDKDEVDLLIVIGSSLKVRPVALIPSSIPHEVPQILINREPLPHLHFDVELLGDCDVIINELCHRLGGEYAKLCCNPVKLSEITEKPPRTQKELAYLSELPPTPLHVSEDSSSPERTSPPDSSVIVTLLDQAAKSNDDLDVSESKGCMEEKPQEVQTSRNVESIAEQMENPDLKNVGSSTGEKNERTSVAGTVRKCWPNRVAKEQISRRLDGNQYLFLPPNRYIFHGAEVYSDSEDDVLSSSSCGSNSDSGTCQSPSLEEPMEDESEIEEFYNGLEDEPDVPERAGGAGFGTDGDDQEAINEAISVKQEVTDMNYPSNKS

[2] = target: NAD-dependent protein deacylase sirtuin-6 (Homo sapiens, UniProt Q8N6T7); assay: Inhibition of recombinant N-terminal hexa-His-tagged SIRT6 (3 to 318 residues) (unknown origin) expressed in Escherichia coli BL21 (DE3) using RHKKac-AMC as substrate incubated for 2 hrs in presence of NAD+ by fluorescence microplate reader assay
NAD-dependent protein deacylase sirtuin-6, sequence (Q8N6T7 whole entry, the tested form may be a part): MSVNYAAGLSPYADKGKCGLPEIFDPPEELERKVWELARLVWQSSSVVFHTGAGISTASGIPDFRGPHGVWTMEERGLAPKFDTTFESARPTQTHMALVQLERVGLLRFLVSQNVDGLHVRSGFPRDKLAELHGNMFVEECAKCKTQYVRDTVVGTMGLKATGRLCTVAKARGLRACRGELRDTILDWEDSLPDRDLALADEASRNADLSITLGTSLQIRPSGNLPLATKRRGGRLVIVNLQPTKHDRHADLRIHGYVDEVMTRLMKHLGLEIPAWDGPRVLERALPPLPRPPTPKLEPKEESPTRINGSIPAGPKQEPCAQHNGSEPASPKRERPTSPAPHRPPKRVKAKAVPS

[3] = target: T1, NAD-dependent protein deacetylase sirtuin-2 (Homo sapiens, UniProt Q8IXJ6); assay: Inhibition of GST-fusion tagged human SIRT2 (34 to 356 residues) expressed in Escherichia coli BL21 (DE3) using Abz-GVLKacAYNO2GY-NH2 peptide as substrate incubated for 30 mins in presence of NAD+ by fluorescence microplate reader assay
T1 sequence (Q8IXJ6 whole entry): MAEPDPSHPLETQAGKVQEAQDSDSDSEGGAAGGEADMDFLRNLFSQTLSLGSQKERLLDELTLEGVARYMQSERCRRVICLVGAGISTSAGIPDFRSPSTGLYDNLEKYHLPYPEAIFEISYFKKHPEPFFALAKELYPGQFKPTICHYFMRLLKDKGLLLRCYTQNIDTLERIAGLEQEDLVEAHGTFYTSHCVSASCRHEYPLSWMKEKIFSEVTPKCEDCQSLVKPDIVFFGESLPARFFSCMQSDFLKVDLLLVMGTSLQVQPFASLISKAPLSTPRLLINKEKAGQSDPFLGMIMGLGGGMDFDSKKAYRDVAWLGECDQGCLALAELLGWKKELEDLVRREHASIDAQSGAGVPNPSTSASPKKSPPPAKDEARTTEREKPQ

[4] = target: T2, NAD-dependent protein deacetylase sirtuin-1 (Homo sapiens) (UniProt Q96EB6); assay: Inhibition of SIRT1 in human SH-SY5Y cells assessed as increase in acetylated p53 level at 10 uM measured after 72 hrs in presence of ATRA by Western blot analysis; assay type: cell-based
T2 sequence (whole entry): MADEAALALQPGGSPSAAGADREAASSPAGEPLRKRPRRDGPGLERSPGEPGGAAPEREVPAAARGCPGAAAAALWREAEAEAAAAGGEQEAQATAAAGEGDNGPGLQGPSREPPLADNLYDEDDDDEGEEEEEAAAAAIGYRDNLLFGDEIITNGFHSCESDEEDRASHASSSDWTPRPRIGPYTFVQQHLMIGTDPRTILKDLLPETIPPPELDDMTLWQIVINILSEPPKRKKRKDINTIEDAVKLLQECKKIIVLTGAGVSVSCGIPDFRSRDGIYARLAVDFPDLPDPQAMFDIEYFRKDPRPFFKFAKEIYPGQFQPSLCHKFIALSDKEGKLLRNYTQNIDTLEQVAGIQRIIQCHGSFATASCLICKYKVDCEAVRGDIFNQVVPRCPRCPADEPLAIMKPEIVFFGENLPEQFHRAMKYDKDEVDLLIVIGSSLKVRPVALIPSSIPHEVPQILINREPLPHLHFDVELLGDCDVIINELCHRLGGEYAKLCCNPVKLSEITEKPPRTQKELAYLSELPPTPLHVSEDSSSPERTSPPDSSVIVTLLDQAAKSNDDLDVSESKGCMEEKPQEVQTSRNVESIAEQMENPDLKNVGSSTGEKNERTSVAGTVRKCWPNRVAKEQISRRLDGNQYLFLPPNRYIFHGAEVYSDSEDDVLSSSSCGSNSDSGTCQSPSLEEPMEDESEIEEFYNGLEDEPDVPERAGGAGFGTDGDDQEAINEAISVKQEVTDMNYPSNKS

[5] = target: T3, NAD-dependent protein deacetylase sirtuin-1 (Homo sapiens, UniProt Q96EB6); assay: Inhibition of N-terminal hexa-His-tagged human SIRT1 (156 to 664 residues) expressed in Escherichia coli BL21 (DE3) assessed as deacetylation of Abz-labeled acetyl peptide using Abz-GVLKacAYNO2GY-NH2 peptide as substrate incubated for 30 mins in presence of NAD+ by fluorescence microplate reader assay; details: read-out: IC50
T3 sequence (Q96EB6 whole entry): T2 sequence (whole entry)

[6] = target: T2, NAD-dependent protein deacetylase sirtuin-1 (Homo sapiens); assay: (§1) Mixed-type inhibition of N-terminal hexa-His-tagged human SIRT1 (156 to 664 residues) expressed in Escherichia coli BL21 (DE3) assessed as decrease in Km at 0.47 to 1.98 uM using varying levels Abz-GVLKacAYNO2GY-NH2 peptide as substrate in presence of NAD+ by Lineweaver-burk plot analysis; details: dose 0.47-1.98 µM
[7] = target: NAD-dependent protein deacetylase sirtuin-1 (Homo sapiens, UniProt Q96EB6, N346A); assay: Inhibition of N-terminal hexa-His-tagged human SIRT1 N346A mutant (156 to 664 residues) expressed in Escherichia coli BL21 (DE3) assessed as dissociation equilibrium constant using Abz-GVLKacAYNO2GY-NH2 as substrate in presence of varying level of NAD+ by Lineweaver-burk plot analysis
NAD-dependent protein deacetylase sirtuin-1 (Homo sapiens, UniProt Q96EB6, N346A), sequence (Q96EB6 2-747 N346A limits assumed): as the sequence (Q96EB6 2-747 F273L limits assumed) above, with L272F, N345A counted along it

[8] = target: NAD-dependent protein deacetylase sirtuin-1 (Homo sapiens, UniProt Q96EB6, F414A); assay: Inhibition of N-terminal hexa-His-tagged human SIRT1 F414A mutant (156 to 664 residues) expressed in Escherichia coli BL21 (DE3) assessed as dissociation equilibrium constant using Abz-GVLKacAYNO2GY-NH2 as substrate in presence of varying level of NAD+ by Lineweaver-burk plot analysis
NAD-dependent protein deacetylase sirtuin-1 (Homo sapiens, UniProt Q96EB6, F414A), sequence (Q96EB6 2-747 F414A limits assumed): as the sequence (Q96EB6 2-747 F273L limits assumed) above, with L272F, F413A counted along it

[9] = target: T2, NAD-dependent protein deacetylase sirtuin-1 (Homo sapiens); assay: (§2) Non-competitive inhibition of N-terminal hexa-His-tagged human SIRT1 (156 to 664 residues) expressed in Escherichia coli BL21 (DE3) assessed as effect on Km at 0.47 to 1.98 uM using Abz-GVLKacAYNO2GY-NH2 as substrate in presence of varying level of NAD+ by Lineweaver-burk plot analysis; details: dose 0.47-1.98 µM
[10] = target: NAD-dependent protein deacylase sirtuin-5, mitochondrial (Homo sapiens, UniProt Q9NXA8); assay: Inhibition of N-terminal 8His-tagged human SIRT5 (34 to 302 residues) expressed in Escherichia coli Rosetta2 (DE3) using Abz-GVLKacAYNO2GY-NH2 peptide as substrate incubated for 30 mins in presence of NAD+ by fluorescence microplate reader assay; details: read-out: IC50
NAD-dependent protein deacylase sirtuin-5, mitochondrial, sequence (Q9NXA8 whole entry, the tested form may be a part): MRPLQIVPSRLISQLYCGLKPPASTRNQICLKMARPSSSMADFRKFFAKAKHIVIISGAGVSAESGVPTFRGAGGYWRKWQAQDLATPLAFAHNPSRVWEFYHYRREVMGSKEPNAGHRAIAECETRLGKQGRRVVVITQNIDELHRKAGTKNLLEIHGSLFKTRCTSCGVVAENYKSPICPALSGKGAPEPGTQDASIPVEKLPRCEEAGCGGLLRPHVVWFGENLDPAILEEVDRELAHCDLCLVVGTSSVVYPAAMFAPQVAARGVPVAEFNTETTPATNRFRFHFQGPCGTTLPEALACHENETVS

[11] = Inhibition of N-terminal hexa-His-tagged human SIRT1 D348A mutant (156 to 664 residues) expressed in Escherichia coli BL21 (DE3) assessed as dissociation equilibrium constant using Abz-GVLKacAYNO2GY-NH2 as substrate in presence of varying level of NAD+ by Lineweaver-burk plot analysis
[12] = target: T2, NAD-dependent protein deacetylase sirtuin-1 (Homo sapiens); assay: as §1, with “initial velocity V0” for “Km”; details: dose 0.47-1.98 µM
[13] = target: NAD-dependent protein deacetylase sirtuin-1 (Homo sapiens, UniProt Q96EB6, I347A); assay: Inhibition of N-terminal hexa-His-tagged human SIRT1 I347A mutant (156 to 664 residues) expressed in Escherichia coli BL21 (DE3) assessed as dissociation equilibrium constant using Abz-GVLKacAYNO2GY-NH2 as substrate in presence of varying level of NAD+ by Lineweaver-burk plot analysis
NAD-dependent protein deacetylase sirtuin-1 (Homo sapiens, UniProt Q96EB6, I347A), sequence (Q96EB6 2-747 I347A limits assumed): as the sequence (Q96EB6 2-747 F273L limits assumed) above, with L272F, I346A counted along it

[14] = target: T3, NAD-dependent protein deacetylase sirtuin-1; assay: Inhibition of wild type N-terminal hexa-His-tagged human SIRT1 (156 to 664 residues) expressed in Escherichia coli BL21 (DE3) assessed as dissociation equilibrium constant using Abz-GVLKacAYNO2GY-NH2 as substrate in presence of varying level of NAD+ by Lineweaver-burk plot analysis
[15] = target: T2, NAD-dependent protein deacetylase sirtuin-1 (Homo sapiens); assay: as §2, with “decrease in initial velocity V0” for “effect on Km”; details: dose 0.47-1.98 µM
[16] = target: T3, NAD-dependent protein deacetylase sirtuin-1; assay: Inhibition of His-tagged SIRT1 (unknown origin) expressed in Escherichia coli codon plus (DE3) using acetylated p53 as substrate
[17] = target: T4, NAD-dependent protein deacetylase sirtuin-3, mitochondrial (Homo sapiens, UniProt Q9NTG7); assay: Inhibition of SIRT3 (unknown origin)
T4 sequence (Q9NTG7 whole entry): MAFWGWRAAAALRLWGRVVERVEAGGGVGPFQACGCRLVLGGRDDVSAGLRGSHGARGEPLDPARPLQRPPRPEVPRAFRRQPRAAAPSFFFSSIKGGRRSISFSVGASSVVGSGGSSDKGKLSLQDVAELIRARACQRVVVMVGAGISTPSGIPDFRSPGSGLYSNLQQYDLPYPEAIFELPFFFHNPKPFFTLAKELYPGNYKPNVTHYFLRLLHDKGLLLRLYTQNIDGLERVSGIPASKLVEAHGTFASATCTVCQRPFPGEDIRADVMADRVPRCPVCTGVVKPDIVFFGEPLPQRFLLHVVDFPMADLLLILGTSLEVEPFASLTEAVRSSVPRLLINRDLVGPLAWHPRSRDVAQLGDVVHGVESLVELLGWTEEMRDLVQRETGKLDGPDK

Structure (SMILES): COc1cc(C=C2C(=O)OC(c3ccccc3)OC2=O)cc(Br)c1O (configuration not stated)
- Ki [1]: 650 nM
- IC50 [2]: Not Active
- IC50 [3]: 54000 nM
- increase in acetylated p53 level (qualitative) [4]: Active
- IC50 [5]: 1310 nM
- inhibition [6]: Active
- Ki [7]: 1940 nM
- Ki [8]: 18200 nM
- inhibition [9]: Active
- IC50 [10]: 19800 nM
- Ki [11]: 7060 nM
- inhibition [12]: Active
- Ki [13]: 710 nM
- Ki [14]: 100 nM
- inhibition [15]: Active

Structure (SMILES): CCC(Sc1nnc2c(n1)[nH]c1ccccc12)C(=O)N1c2ccccc2Sc2ccccc21 (configuration not stated)
- IC50 [16]: 100 nM

Structure (SMILES): CC1=CCC(C(=O)/N=C2\CC=C(S(=O)(=O)O)c3cc(S(=O)(=O)O)cc(S(=O)(=O)O)c32)=C/C1=N/C(=O)C1=CC=C/C(=N\C(=O)/N=C2\C=CC=C(C(=O)/N=C3/CC(C(=O)/N=C4\CC=C(S(=O)(=O)O)c5cc(S(=O)(=O)O)cc(S(=O)(=O)O)c54)=CC=C3C)C2)C1
- IC50 [17]: 22000 nM
